Reference: US4504470A, “Pharmaceutical preparations containing TRH or its analogue” (Takeda Chemical Industries, Ltd., priority 1981, dated 1985)
Read-outs that look alike come from different tables or passages of the source.

Assays:
[1] = Absorption of DN-1417 (14C-DN-1417) administered by various routes to rats, plasma AUC; assay type: in vivo; settings: for bioavailability as compared with subcutaneous application: no absorption enhancer, 2 mg/kg
Method: Male rats of SD strain weighing ca. 300 g, which had been fasted for 24 hours, were dosed with an amount of ^14 C-DN-1417 corresponding to 2 mg/kg of DN-1417 by the rectal, nasal, oral cavity and oral routes. The dosage form for nasal, oral cavity or oral administration was either an aqueous solution or an oil solution, and for nasal administration, 0.02 ml of the solution was given with a micropipette; for oral cavity application, a wad of cotton soaked with 0.02 ml of the solution was sublingually administered; and for oral administration, 1 ml of the solution was given by gavage. For rectal administration, 0.1 ml of an aqueous solution was given using a pipette. In the case of a polyethylene glycol suppository and Witepsol W-35 (Dynamit Nobel Chemicals, West Germany) suppository, 50 mg of either suppository was deposited 1.5 cm from the anus.
After administration, 0.2 ml of blood was taken from the cordal vein at timed intervals and the plasma radioactivity was measured with a scintillation counter. Separation of the unmetabolized compound from metabolites was performed by thin-layer electrophoresis. For the evaluation of absorption rates, the area under a curve of the plasma concentration of DN-1417 over a period of 6 hours after administration [AUC (0-6 hr.)] was compared with the corresponding value obtained by subcutaneous administration to calculate the bioavailability of the drug.

[2] = parameters: species or system rats; settings: rat, in vivo; for AUC (0-2 hr.): po, 2 mg/kg
Method: Using male SD-strain rats weighing ca. 300 g which had been fasted for 24 hours in groups of 3 animals, an amount of ^3 H-TRH equivalent to 2 mg/kg of TRH was administered by the rectal, nasal and oral routes.
The method and volume of administration, the method of collecting blood samples and the method of determination were all the same as described in Experimental Example 1. Evaluation of absorption ratio was made using as a parameter the plasma level of TRH.

effect on absorption ([1]; addition of a hydroxycarboxylic acid) | bioavailability as compared with subcutaneous application ([1]; nasal) | bioavailability as compared with subcutaneous application ([1]; rectal) | absorption from the rectal and nasal mucosa [2] | AUC (0-2 hr.) ([2]; pH 2.1) | AUC (0-2 hr.) ([2]; pH 3.2) | SMILES | effect on absorption ([1]; addition of amino acids, lecithin, etc.)
remarkable improvement in absorption | 21% | 25% |  |  |  | NC(=O)[C@@H]1CCCN1C(=O)[C@H](Cc1c[nH]cn1)NC(=O)C1CCC(=O)O1 (stereo partly drawn) [DN-1417, γ-butyrolactone-γ-carbonyl-L-histidyl-L-prolinamide] | does not result in any significant improvement of absorption
 |  |  | enhanced | 1.1 µg·h/mL | 0.7 µg·h/mL | NC(=O)[C@@H]1CCCN1C(=O)[C@H](Cc1cnc[nH]1)NC(=O)[C@@H]1CCC(=O)N1 [TRH, L-pyroglutamyl-L-histidyl-L-prolinamide] | 
